Source: patent US20230136562A1, “SPIROUREA DERIVATIVES” (Idorsia Pharmaceuticals Ltd, priority 2020, published 2023)
Where two headings read alike, the source gives them in different places.

Test system: primary neuronal cultures from embryonic rat brains
Assay: Rat oscillation assay (FLIPR, neuronal calcium oscillations)
Assay type: cell-based
Settings: Rattus norvegicus
Experimental: A) Rat Oscillation Assay:
This assay is a functional phenotypic assay designed to mimic epileptic seizures using primary neuronal cultures from embryonic rat brains, which form a functional neuronal network that generate synchronized intracellular calcium concentration oscillations when cultured at high density in 384-well plate. The epileptic phenotype is induced by incubating the neurons in magnesium-free assay buffer, that results in increased probability of NMDA receptor activation, leading to an increased frequency and amplitude of intracellular calcium oscillations. Once neurons are incubated with the calcium indicator dye Fluo-8 AM (Tebu-bio), neuronal calcium oscillations can be monitored in real time using FLIPR® Tetra (fluorometric plate reader, Molecular Devices). With these recordings, the effect of anti-epileptic drugs can be quantified. The anti-epileptic effect of compounds, which activate directly or indirectly the Kv7 channels can be modulated by the Kv7 channel blocker XE-991. The assay was performed as described previously (Pacico N, Mingorance-Le Meur A. New In Vitro Phenotypic Assay for Epilepsy: Fluorescent Measurement of Synchronized Neuronal Calcium Oscillations. PLoS ONE 9(1) 2014) with modifications described hereafter.
Animal care followed standard procedures in accordance with swiss institutional guidelines. Dissociated neuronal cultures were obtained from cerebral cortices of embryonic Wistar rats at embryonic stage E18 (Charles River). The uterine horns were removed by caesarian surgery from deeply anesthetized rats (Isofurane) and sacrificed by decapitation. The embryos were decapitated by closing forceps. The brains were isolated and dissected one by one in ice-cold PBS (Life Technologies) under optical control using a binocular. Meninges, olfactory bulbs, and basal ganglia were removed. Cortical hemispheres (still including the hippocampus) were cut in small pieces with tweezers and placed on ice in pre-chilled Hibernate-E medium (Life technology). The hemispheres were then incubated in 10 mL of Hibernate-E containing 15 U/mL papain (Worthington) for 25 min at 30° C. with gentle mixing every 10 min. Genomic DNA was then digested by prolonging the incubation during 10 min at 37° C. in presence of 4 U/mL rDNase I (Ambion). The obtained suspension was then centrifuged at 800 g for 5 min and the cell pellet was resuspended in 2 mL Hibernate-E and gently dissociated by pipetting up and down 10 times with a plastic Pasteur pipette resulting in a homogenous cell suspension. This suspension was immediately filtered through a 70 µm cell strainer (MACS® SmartStrainer, Miltenyi), collected in 10 mL Hibernate-E and centrifuged at 800 g for 5 min. The cell pellet was resuspended in Neurobasal medium, supplemented with 2% B-27, 0.5 mM Glutamax-I, 100 U/mL penicillin, 100 µg/mL streptomycin (Life Technologies) and diluted at the final concentration of 300′000 cells/mL. One day before plating the cells, 384-well plates were coated with 25 μL/well of 0.1% poly-L-lysine solution (Sigma), incubated overnight at 37° C., washed two times with sterile distilled water and allowed to dry at room temperature for >2 h. The neurons were seeded at a density of 15′000 cells/well in 50 μL/well in a 384-well black, clear-bottomed plates (Corning) and subsequently maintained in an incubator at 37° C., 5% CO2 and 95% humidity for 8 to 10 days. After 3 and 7 days, 40% of media was renewed under sterile conditions.
Protocol Rat Oscillation Assay
Neurons seeded in the assay plates were washed with Hank's balanced salt solution (HBSS) devoid of Ca^2+ and Mg^2+, supplemented with 20 mM HEPES (Life Technologies) and 2 mM CaCl2 (Sigma), pH 7.4 (hereafter called Assay buffer) using a Biotek EL406 plate washer. Neurons were loaded with 1 μM Fluo-8 AM in Assay buffer for 15 min at 37° C., 5% CO2. […]

[1] = 20 min, AUC of fluorescence measured 20 min after compound addition, read-out: FLIPR: IC50 [nM] 20 min
[2] = Acute phase, ratio of AUC fluorescence before and after compound addition, read-out: FLIPR: IC50 [nM] acute

Row | SMILES | IC50 [1] [nM] | IC50 [2] [nM]
1 | CC(NC(=O)NC1CC2(CCC2)C1)c1cccc2c1OC(F)(F)O2 (racemic) [Example 47, (±)-1-[1-(2,2-Difluoro-benzo[1,3]dioxol-4-yl)-ethyl]-3-spiro[3.3]hept-2-yl-urea] | 222 | 103
2 | CC(NC(=O)NC1CC2(CC2)C1)c1cc(OCC(F)(F)F)ccc1F (racemic) [Example 129, (±)-1-{1-[2-Fluoro-5-(2,2,2-trifluoro-ethoxy)-phenyl]-ethyl}-3-spiro[2.3]hex-5-yl-urea] | 254 | 212
3 | O=C(NCc1cccc(OC(F)(F)F)c1)NC1CC2(CC2)C1 [Example 156, 1-Spiro[2.3]hex-5-yl-3-(3-trifluoromethoxy-benzyl)-urea] | 83 | 60
4 | CC(NC(=O)NC1CC2(CCC2)C1)c1ccnc(OCC(F)(F)F)c1 (racemic) [Example 93, (±)-1-Spiro[3.3]hept-2-yl-3-{1-[2-(2,2,2-trifluoro-ethoxy)-pyridin-4-yl]-ethyl}-urea] | 2.2 | 1.9
5 | O=C(NCc1cc(C(F)(F)F)ccc1F)NC1CC2(CC2)C1 [Example 151, 1-(2-Fluoro-5-trifluoromethyl-benzyl)-3-spiro[2.3]hex-5-yl-urea] | 419 | 269
6 | COCC(c1ccnc(OCC(F)(F)F)c1)N(C)C(=O)NC1CC2(CCC2)C1 (racemic) [Example 50, (±)-1-{2-Methoxy-1-[2-(2,2,2-trifluoro-ethoxy)-pyridin-4-yl]-ethyl}-1-methyl-3-spiro[3.3]hept-2-yl-urea] | 118 | 80
7 | Cn1nncc1C(NC(=O)NC1CC2(CCC2)C1)c1cccc(C(F)(F)F)c1 (racemic) [Example 165, (±)-1-[(3-Methyl-3H-[1,2,3]triazol-4-yl)-(3-trifluoromethyl-phenyl)-methyl]-3-spiro[3.3] hept-2-yl-urea] | 289 | 145
8 | O=C(NC1CC2(CCC2)C1)NC(c1cccc(C(F)(F)F)c1)C1CC1 (racemic) [Example 24, (±)-1-[Cyclopropyl-(3-trifluoromethyl-phenyl)-methyl]-3-spiro[3.3]hept-2-yl-urea] | 8.6 | 14
9 | CS(=O)(=O)CC(NC(=O)NC1CC2(CCC2)C1)c1cccc(C(F)(F)F)c1 (racemic) [Example 69, (±)-1-[2-Methanesulfonyl-1-(3-trifluoromethyl-phenyl)-ethyl]-3-spiro[3.3]hept-2-yl-urea] | 83 | 95
10 | COCC1c2cccc(OCC(F)(F)F)c2CCN1C(=O)NC1CC2(CCC2)C1 (racemic) [Example 54, (±)-1-Methoxymethyl-5-(2,2,2-trifluoro-ethoxy)-3,4-dihydro-1H-isoquinoline-2-carboxylic acid spiro[3.3]hept-2-ylamide] | 244 | 207
11 | CC(NC(=O)NC1CC2(CCC2)C1)c1cc(OCC(F)(F)F)ccc1Cl (racemic) [Example 39, (±)-1-{1-[2-Chloro-5-(2,2,2-trifluoro-ethoxy)-phenyl]-ethyl}-3-spiro[3.3]hept-2-yl-urea] | 571 | 487
12 | O=C(NC1CC2(CCC2)C1)NC(c1cccc(OC(F)F)c1)C1CC1 (racemic) [Example 25, (±)-1-[Cyclopropyl-(3-difluoromethoxy-phenyl)-methyl]-3-spiro[3.3]hept-2-yl-urea] | 19 | 10
13 | O=C(NCc1cccc(C(F)(F)F)c1)NC1CC2(C1)CC2(F)F (centres unmarked) [Example 3, 1-(1,1-Difluoro-spiro[2.3]hex-5-yl)-3-(3-trifluoromethyl-benzyl)-urea] | 186 | 122
14 | COCC(NC(=O)NC1CC2(CCC2)C1)c1cccc(C(F)(F)F)c1 (racemic) [Example 9, (±)-1-[2-Methoxy-1-(3-trifluoromethyl-phenyl)-ethyl]-3-spiro[3.3]hept-2-yl-urea] | 2.1 | 5.1
15 | CC(C)(O)C(NC(=O)NC1CC2(CCC2)C1)c1cccc(C(F)(F)F)c1 (racemic) [Example 45, (±)-1-[2-Hydroxy-2-methyl-1-(3-trifluoromethyl-phenyl)-propyl]-3-spiro[3.3]hept-2-yl-urea] | 628 | 549
16 | Cc1nc(OCC(F)(F)F)cc(C(CO)NC(=O)NC2CC3(CC3)C2)n1 (racemic) [Example 123, (±)-1-{2-Hydroxy-1-[2-methyl-6-(2,2,2-trifluoro-ethoxy)-pyrimidin-4-yl]-ethyl}-3-spiro[2.3]hex-5-yl-urea] | 367 | 395
17 | COCC(NC(=O)NC1CC2(CCC2)C1)c1ccnc(OC(F)F)c1 (racemic) [Example 10, (±)-1-[1-(2-Difluoromethoxy-pyridin-4-yl)-2-methoxy-ethyl]-3-spiro[3.3]hept-2-yl-urea] | 6 | 6.2
18 | C[C@H](NC(=O)NC1CC2(CCC2)C1)c1cccc(OC(F)F)c1 (single isomer, unassigned) [Example 173] | 11 | 7
19 | CC(NC(=O)NC1CC2(CCC2)C1)c1ccc(F)c(OCC(F)(F)F)c1 (racemic) [Example 113, (±)-1-{1-[4-Fluoro-3-(2,2,2-trifluoro-ethoxy)-phenyl]-ethyl}-3-spiro[3.3]hept-2-yl-urea] | 22 | 33
20 | O=C(NC1CC2(CCC2)C1)NC(CCO)c1cccc(C(F)(F)F)c1 (racemic) [Example 74, (±)-1-[3-Hydroxy-1-(3-trifluoromethyl-phenyl)-propyl]-3-spiro[3.3]hept-2-yl-urea] | 30 | 27
21 | O=C(NCc1cccc(S(F)(F)(F)(F)F)c1)NC1CC2(CCC2)C1 [Example 35, 1-(3-(pentafluoro-λ^6-sulfaneyl)benzyl)-3-(spiro[3.3]heptan-2-yl)urea] | 24 | 22
22 | N#CC(NC(=O)NC1CC2(CCC2)C1)c1cccc(C(F)(F)F)c1 (racemic) [Example 89, 1-[(±)-Cyano-(3-trifluoromethyl-phenyl)-methyl]-3-spiro[3.3]hept-2-yl-urea] | 74 | 75
23 | CC(NC(=O)NC1CC2(CCC2)C1)c1ccnc(OC(F)F)c1 (racemic) [Example 100, (±)-1-[1-(2-Difluoromethoxy-pyridin-4-yl)-ethyl]-3-spiro[3.3]hept-2-yl-urea] | 3.6 | 5.9
24 | CC(NC(=O)NC1CC2(CCC2)C1)c1cc(OCC(F)(F)F)ncn1 (racemic) [Example 61, (±)-1-Spiro[3.3]hept-2-yl-3-{1-[6-(2,2,2-trifluoro-ethoxy)-pyrimidin-4-yl]-ethyl}-urea] | 25 | 14
25 | CN(CC(F)(F)F)c1cc(CNC(=O)NC2CC3(CCC3)C2)ccn1 [Example 115, 1-{2-[Methyl-(2,2,2-trifluoro-ethyl)-amino]-pyridin-4-ylmethyl}-3-spiro[3.3]hept-2-yl-urea] | 241 | 185
26 | Cc1c(OCC(F)(F)F)cccc1C(C)NC(=O)NC1CC2(CCC2)C1 (racemic) [Example 29, (±)-1-{1-[2-Methyl-3-(2,2,2-trifluoro-ethoxy)-phenyl]-ethyl}-3-spiro[3.3]hept-2-yl-urea] | 253 | 452
27 | O=C(NC1CC2(CCC2)C1)N1CCc2c(ccnc2OCC(F)(F)F)C1 [Example 53, 5-(2,2,2-Trifluoro-ethoxy)-3,4-dihydro-1H-[2,6]naphthyridine-2-carboxylic acid spiro[3.3]hept-2-ylamide] | 226 | 185
28 | O=C(NC1CC2(CCC2)C1)NC1COc2ccc(OC(F)(F)F)cc21 (racemic) [Example 11, (±)-1-Spiro[3.3]hept-2-yl-3-(5-trifluoromethoxy-2,3-dihydro-benzofuran-3-yl)-urea] | 171 | 246
